Source: patent publication US11795460B2, “Compositions and methods for TTR gene editing and treating ATTR amyloidosis” (Intellia Therapeutics, Inc., priority 2017, dated 2023)

Legend:
TTR [1] = test: TTR editing in primary human hepatocytes electroporated with Spy Cas9 protein loaded with dgRNAs (Table 7); type: cell-based; details: dgRNA electroporated with Spy Cas9 protein (RNP)
Summary of the method: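 Primary human or cynomolgus hepatocytes electroporated (Lonza P3 buffer, program EX-147) with Spy Cas9 RNP carrying pre-annealed crRNA/trRNA dual guides. Genomic DNA harvested at 24, 48 or 72 h; target amplicons sequenced by Illumina MiSeq. Percent editing = reads with indels or substitutions over total reads.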

TTR [2] = test: TTR editing in primary human hepatocytes transfected with Spy Cas9 mRNA and dgRNAs (Table 9); type: cell-based; details: dgRNA co-transfected with Spy Cas9 mRNA (SEQ ID NO:2)
Summary of the method: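 PHH sequentially lipofected with Spy Cas9 mRNA (100 ng), then crRNA plus tracrRNA (25 nM each) dual-guide lipoplex. Cells harvested 24, 48 or 72 h post-transfection; TTR target amplicons sequenced on Illumina MiSeq, editing given as percent reads with indels or substitutions over total reads.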

TTR [3] = test: TTR editing in HEK293_Cas9 cells transfected with dgRNAs (Table 4); type: cell-based, human; details: HEK293_Cas9 cells (constitutively express Spy Cas9) transfected with dgRNAs
Summary of the method: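 Spy Cas9-expressing HEK293 cells were transfected by lipofection with crRNA (25 nM) plus trRNA (25 nM) and harvested at 24, 48 or 72 h. The target site was PCR-amplified and sequenced on MiSeq. Percent editing is reads with indels or substitutions over total reads.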

Sequence	Avg % Deletion (TTR [1]) [%]	Avg % Edit (TTR [1]) [%]	Avg % Insert (TTR [1]) [%]	Avg % Deletion (TTR [2]) [%]	Avg % Edit (TTR [2]) [%]	Avg % Insert (TTR [2]) [%]	Avg % Deletion (TTR [3]) [%]	Avg % Edit (TTR [3]) [%]	Avg % Insert (TTR [3]) [%]
GGAGUAGGGGCUCAGCAGGG (tested as dual guide RNA, chemistry not given here) [CR003382]	0.43	8.40	8.10	0.00	0.97	0.97	25.49	29.95	4.46
GGCUGUCGUCACCAAUCCCA (tested as dual guide RNA, chemistry not given here) [CR003391]	0.27	29.77	29.57	0.30	15.47	15.20	44.19	44.81	0.61
GGGAUUGGUGACGACAGCCG (tested as dual guide RNA, chemistry not given here) [CR003390]	0.23	15.97	15.80	1.60	20.23	18.73	23.71	28.02	4.31
GUGAGUCUGGAGAGCUGCAU (tested as dual guide RNA, chemistry not given here) [CR003360]	0.63	32.23	31.67	0.90	14.90	14.13	19.98	22.68	2.70
UACUCACCUCUGCAUGCUCA (tested as dual guide RNA, chemistry not given here) [CR003372]	1.77	12.17	10.47	0.63	1.77	1.13	11.99	15.24	3.25
UCUAGAACUUUGACCAUCAG (tested as dual guide RNA, chemistry not given here) [CR003345]	13.57	48.07	34.53	18.45	50.65	32.30	16.01	35.02	19.00
UGGACUGGUAUUUGUGUCUG (tested as dual guide RNA, chemistry not given here) [CR003340]	6.50	12.03	5.60	23.17	24.97	1.83	14.50	42.38	27.88
UGUAGAAGGGAUAUACAAAG (tested as dual guide RNA, chemistry not given here) [CR003365]	6.83	42.37	35.57	6.67	26.90	20.23	24.61	36.43	11.83
UUCUUUGGCAACUUACCCAG (tested as dual guide RNA, chemistry not given here) [CR003357]	0.77	36.23	35.47	0.63	25.93	25.30	37.85	43.23	5.38
UUUGACCAUCAGAGGACACU (tested as dual guide RNA, chemistry not given here) [CR003344]	6.10	39.40	33.30	9.20	31.50	22.40	29.54	33.87	4.32
